Measured values taken from patent US7491827B2, “Aryl sulfonamides useful as inhibitors of chemokine receptor activity” (Millennium Pharmaceuticals, Inc., priority 2003, dated 2009).

Each compound was assayed against T1, cloned human CCR8 receptor stably expressed in L1.2 cells (Homo sapiens, UniProt P51685) (assay: whole cell binding screen: inhibition of biotinylated human I309 binding to CCR8 (FMAT 8100 HTS)). Conditions: Ki of compounds to inhibit I-309 binding to CCR8, L1.2/hCCR8 cells, biotinylated human I-309, 10 point concentration response starting at 10 μM.
T1 construct: expressed in transfected cells
Text: This whole cell binding screen evaluates the ability of compounds to inhibit biotinlyated human I309 binding to the cloned human CCR8 receptor stably expressed in L1.2 cells. Human CCR8 gene was amplified by PCR using PFU polymerase under standard conditions from human genomic DNA purchased from Stratagene. The PCR primers used were:
The 5′ and 3′ primers contained flanking enzyme sites (Bam Hi and Not 1,respectively), which were used to subclone the gene into pcDNA3.1. […] The CCR8 vector was then transfected into L1.2 cells (murine pre-B cells) by electroporation.
Compounds were screened using the FMAT™ 8100 HTS System (purchased from Applied Biosystems).
A suspension was prepared of L1.2/hCCR8 cells at 4.0×10^5 cells/mL in a binding buffer (Buffer consisting of Hanks Balanced Salt Solution (without phenol red), 10 mM HEPES, 0.1% Fatty Acid Free BSA, 0.02% Sodium Azide).
Dilution series of 10 mM stock concentrations of the test compounds were prepared in DMSO and further diluted into binding buffer defined above) to three times the final assay concentration.
10 point concentration response curve is constructed for each compound, starting at 10 μM (final assay concentration in Binding Buffer). […] The components were mixed in wells by covering the plate with aluminum foil and rotating for 0.5 hours. […] Average fluorescence reported for each concentration was normalized to percent inhibition based on negative (no inhibitor) and positive (100 nM excess unlabeled I309 (R and D Systems)) controls.

T1 sequence (P51685 whole entry): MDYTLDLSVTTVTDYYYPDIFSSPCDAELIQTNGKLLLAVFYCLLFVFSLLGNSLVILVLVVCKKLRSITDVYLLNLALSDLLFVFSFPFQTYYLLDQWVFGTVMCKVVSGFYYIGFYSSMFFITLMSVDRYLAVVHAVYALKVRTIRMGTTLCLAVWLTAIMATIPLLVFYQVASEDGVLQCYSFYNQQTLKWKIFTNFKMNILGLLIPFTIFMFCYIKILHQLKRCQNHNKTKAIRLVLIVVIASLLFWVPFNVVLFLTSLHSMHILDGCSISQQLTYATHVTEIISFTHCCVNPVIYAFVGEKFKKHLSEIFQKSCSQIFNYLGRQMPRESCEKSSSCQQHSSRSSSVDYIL

**Q.** How did the Ki turn out when `CN[C@@H](C)C(=O)N1CCC(NS(=O)(=O)c2ccc(NC(=O)c3ccccc3C)c3ccccc23)CC1` [Compound C-123, (S)-2-Methyl-N-{4-[1-(2-methylamno-propionyl)-piperidin-4-ylsulfamoyl]-naphthalen-1-yl}-benzamide] was run?
**A.** < 0.5 µM

**Q.** Which Ki does the source give for `CCOC(=O)N1CCC(NS(=O)(=O)c2ccc(NC(=O)c3ccccc3C)c3ccccc23)CC1` [Compound A-40, 4-[4-(2-Methyl-benzoylamino)-naphthalene-1-sulfonylamino]-piperidine-1-carboxylic acid ethyl ester] here?
**A.** < 0.5 µM

Same assay, conditions: L1.2/hCCR8 cells, biotinylated human I-309, 10 point concentration response starting at 10 μM; read-out: Ki of compounds to inhibit I-309 binding to CCR8

**Q.** With `CCOC(=O)N1CCC(NS(=O)(=O)c2ccc(NC(=O)c3ccccc3Cl)c3ccccc23)CC1` [Compound A-43, 4-[4-(2-Chloro-benzoylamino)-naphthalene-1-sulfonylamino]-piperidine-1-carboxylic acid ethyl ester] as the compound, how does the Ki read?
**A.** < 0.5 µM

**Q.** With `O=C(Nc1cc(S(=O)(=O)NC2CCCCC2)cc2c1CCCC2)c1ccccc1` [Compound H-54, N-(3-Cyclohexylsulfamoyl-5,6,7,8-tetrahydro-naphthalen-1-yI)-benzamide] as the compound, how does the Ki read?
**A.** < 0.5 µM

**Q.** `CCNC(=O)N1CCC(NS(=O)(=O)c2ccc(NC(=O)c3ccccc3F)c3ccccc23)CC1` [Compound C-100, 4-[4-(2-Fluoro-benzoylamino)-naphthalene-1-sulfonylamino]-piperidine-1-carboxylic acid ethylamide] was tested. Which Ki did it give?
**A.** < 0.5 µM

**Q.** Which Ki does the source give for `CCOC(=O)N1CCC(NS(=O)(=O)c2ccc(CNCc3ccc(Cl)cc3)c3ccccc23)CC1` [Compound G-7, 4-{4-[(4-Chloro-benzylamino)-methyl]-naphthalene-1-sulfonylamino}-piperidine-1-carboxylic acid ethyl ester] here?
**A.** < 0.5 µM

**Q.** Which Ki does the source give for `COc1ccc(NS(=O)(=O)c2ccc(NC(=O)C3CCCCC3)c3ccccc23)cc1` [Compound B-4, Cyclohexanecarboxylic acid [4-(4-methoxy-phenylsulfamoyl)-naphthalen-1-yl]-amide] here?
**A.** < 0.5 µM

**Q.** `Cc1ccccc1C(=O)Nc1ccc(S(=O)(=O)N[C@H]2CCN(C(=O)[C@@H](C)N)C[C@H]2C)c2ccccc12` [Compound J-6, (3R, 4S)-N-{4-[1-(2-(R)-Amno-propionyl)-3-methyl-piperidin-4-ylsulfamoyl]-naphthalen-1-yl}-2-methyl-benzamide] was tested. Which Ki did it give?
**A.** < 0.5 µM

**Q.** `Cc1ccccc1C(=O)NCc1ccc(S(=O)(=O)NC2CCCCC2)c2ccccc12` [Compound G-5, N-(4-Cyclohexylsulfamoyl-naphthalen-1-ylmethyl)-2-methyl-benzamide] was tested. Which Ki did it give?
**A.** < 1 µM

**Q.** With `CCOC(=O)N1CCC(NS(=O)(=O)c2ccc(CNCc3ccco3)c3ccccc23)CC1` [Compound G-13, 4-(4-{[(Furan-2-ylmethyl)-amino]-methyl}-naphthalene-1-sulfonylamino)-piperidine-1-carboxylic acid ethyl ester] as the compound, how does the Ki read?
**A.** < 0.5 µM

**Q.** `CCCS(=O)(=O)N1CCC(NS(=O)(=O)c2ccc(NC(=O)c3ccccc3C)c3ccccc23)CC1` [Compound C-59, 2-Methyl-N-{4-[1-(propane-1-sulfonyl)-piperidin-4-ylsulfamoyl]-naphthalen-1-yl}-benzamide] was tested. Which Ki did it give?
**A.** < 0.5 µM

**Q.** Which Ki does the source give for `Cc1ccccc1C(=O)Nc1ccc(S(=O)(=O)N[C@H]2CCN(C(=O)[C@H](C)N)C[C@H]2C)c2ccccc12` [Compound J-5, (3R, 4S)-N-{4-[1-(2-(S)-Amino-propionyl)-3-methyl-piperidin-4-ylsulfamoyl]-naphthalen-1-yl}-2-methyl-benzamide] here?
**A.** < 0.5 µM

**Q.** How did the Ki turn out when `Cc1ccccc1C(=O)Nc1cccc2c(S(=O)(=O)N[C@H]3CCN(C(=O)CN(C)C)C[C@H]3C)cccc12` (racemic) [Compound K-1, (±)-(cis)-N-{5-[1-(2-Dimethylamino-acetyl)-3-methyl-piperidin-4-ylsulfamoyl]-naphthalen-1-yl}-2-methyl-benzamide] was run?
**A.** < 0.5 µM

**Q.** How did the Ki turn out when `CCNC(=O)N1CCC(NS(=O)(=O)c2ccc(NC(=O)c3ccccc3)c3ccccc23)CC1` [Compound C-7, 4-(4-Benzoylamino-naphthalene-1-sulfonylamino)-piperidine-1-carboxylic acid ethylamide] was run?
**A.** < 0.5 µM

**Q.** `CCNC(=O)N1CCC(NS(=O)(=O)c2ccc(NC(=O)c3ccccc3C)c3c2CCCC3)CC1` [Compound E-19, 4-[4-(2-Methyl-benzoylamino)-5,6,7,8-tetrahydro-naphthalene-1-sulfonylamino]-piperidine-1-carboxylic acid ethylamide] was tested. Which Ki did it give?
**A.** < 0.5 µM

**Q.** How did the Ki turn out when `COc1ccc(NS(=O)(=O)c2cc3c(c(NC(=O)c4ccccc4)c2)CCCC3)cc1` [Compound H-55, N-[3-(4-Methoxy-phenylsulfamoyl)-5,6,7,8-tetrahydro-naphthalen-1-yl]-benzamide] was run?
**A.** < 30 µM

**Q.** For `COc1ccc(NS(=O)(=O)c2ccc(NC(=S)Nc3ccccc3)c3ccccc23)cc1` [Compound B-9, 4-(3-Phenyl-thioureido)-naphthalene-1-sulfonic acid (4-methoxy-phenyl)-amide], which Ki is on record?
**A.** < 30 µM

**Q.** With `CCOC(=O)N1CC[C@H](NS(=O)(=O)c2ccc(NC(=O)c3ncccc3C)c3ccccc23)[C@H](C)C1` (racemic) [Compound D-7, (±)-(cis)-3-Methyl-4-{4-[(3-methyl-pyridine-2-carbonyl)-amino]-naphthalene-1-sulfonylamino}-piperidine-1-carboxylic acid ethyl ester] as the compound, how does the Ki read?
**A.** < 0.5 µM

**Q.** With `CCCC(=O)N1CCC(NS(=O)(=O)c2ccc(NC(=O)c3ccccc3C(F)(F)F)c3ccccc23)CC1` [Compound C-101, N-[4-(1-Butyryl-piperidin-4-ylsulfamoyl)-naphthalen-1-yl]-2-trifluoromethyl-benzamide] as the compound, how does the Ki read?
**A.** < 0.5 µM

**Q.** Which Ki does the source give for `CCOC(=O)N1CCC(NS(=O)(=O)c2ccc(NC(=O)c3cccnc3C)c3ccccc23)CC1` [Compound B-24] here?
**A.** < 0.5 µM

**Q.** `CC(C)(C)OC(=O)N1CCC(NS(=O)(=O)c2ccc(NC(=O)C3CCC3)c3ccccc23)CC1` [Compound B-18, 4-[4-(Cyclobutanecarbonyl-amino)-naphthalene-1-sulfonylamino]-piperidine-1-carboxylic acid tert-butyl ester] was tested. Which Ki did it give?
**A.** < 30 µM

**Q.** How did the Ki turn out when `CN(C)C(=O)N1CCC(NS(=O)(=O)c2ccc(C(=O)NC3CCCCC3)c3ccccc23)CC1` [Compound F-6, 4-(4-Cyclohexylcarbamoyl-naphthalene-1-sulfonylamino)-piperidine-1-carboxylic acid dimethylamide] was run?
**A.** < 0.5 µM

**Q.** For `CN(C)CCNS(=O)(=O)c1ccc(NC(=O)c2ccccc2)c2ccccc12` [Compound A-9, N-[4-(2-Dimethylamino-ethylsulfamoyl)-naphthalen-1-yl]-benzamide], which Ki is on record?
**A.** < 30 µM

**Q.** For `O=C(Nc1ccc(S(=O)(=O)NC2CCN(Cc3ccccc3)CC2)c2ccccc12)c1ccccc1` [Compound A-25, N-[4-(1-Benzyl-piperidin-4-ylsulfamoyl)-naphthalen-1-yl]-benzamide], which Ki is on record?
**A.** < 0.5 µM

**Q.** With `O=C(Nc1ccc(S(=O)(=O)NC2CCCCC2)c2c1CCCC2)c1ccccc1` [Compound E-2, N-(4-Cyclohexylsulfamoyl-5,6,7,8-tetrahydro-naphthalen-1-yl)-benzamide] as the compound, how does the Ki read?
**A.** < 0.5 µM

**Q.** For `CC[C@H]1CN(C(=O)[C@H](C)N)CC[C@@H]1NS(=O)(=O)c1ccc(NC(=O)c2ccccc2C)c2ccccc12` [Compound J-33, (3S, 4S)-N-{4-[1-(2-(S)-Amino-propionyl)-3-ethyl-piperidin-4-ylsulfamoyl]-naphthalen-1-yl}-2-methyl-benzamide], which Ki is on record?
**A.** < 0.5 µM

**Q.** With `CCOC(=O)N1CCC(NS(=O)(=O)c2cccc3c(NC(=O)C4CCCCC4)cccc23)CC1` [Compound H-7, 4-[5-(Cyclohexanecarbonyl-amino)-naphthalene-1-sulfonylamino]-piperidine-1-carboxylic acid ethyl ester] as the compound, how does the Ki read?
**A.** < 0.5 µM

**Q.** For `CCOC(=O)N1CCC(NS(=O)(=O)c2ccc(CNC(=O)c3ccccc3C)c3ccccc23)CC1` [Compound G-1, 4-{4-[(2-Methyl-benzoylamino)-methyl]-naphthalene-1-sulfonylamino}-piperidine-1-carboxylic acid ethyl ester], which Ki is on record?
**A.** < 0.5 µM

**Q.** With `CCCC(=O)N1CCC(NS(=O)(=O)c2ccc(C(=O)Nc3ccccc3C)c3ccccc23)CC1` [Compound F-9, 4-(1-Butyryl-piperidin-4-ylsulfamoyl)-naphthalene-1-carboxylic acid o-tolylamide] as the compound, how does the Ki read?
**A.** < 0.5 µM

**Q.** For `CC[C@H]1CNCC[C@@H]1NS(=O)(=O)c1ccc(NC(=O)c2ccccc2C)c2ccccc12` [Compound J-47], which Ki is on record?
**A.** < 0.5 µM

**Q.** For `CCOC(=O)N1CCCC(NS(=O)(=O)c2ccc(NC(=O)c3ccccc3C)c3ccccc23)C1` (racemic) [Compound C-115, (±)-3-[4-(2-Methyl-benzoylamno)-naphthalene-1-sulfonylamino]-piperidine-1-carboxylic acid ethyl ester], which Ki is on record?
**A.** < 0.5 µM

**Q.** `CCCC(=O)N1CCC(NS(=O)(=O)c2ccc(NC(=O)C3CCN(C)CC3)c3ccccc23)CC1` [Compound D-24, 1-Methyl-piperidine-4-carboxylic acid [4-(1-butyryl-piperidin-4-ylsulfamoyl)-naphthalen-1-yl]-amide] was tested. Which Ki did it give?
**A.** < 30 µM

**Q.** With `CCCC(=O)N1CC[C@H](NS(=O)(=O)c2ccc(NC(=O)c3ccccc3C)c3ccccc23)[C@@H](CO)C1` (racemic) [Compound C-76, (±)-(trans)-N-[4-(1-butyryl-3-hydroxymethyl-piperidin-4-ylsulfamoyl)-naphthalen-1-yl]-2-methyl-benzamide] as the compound, how does the Ki read?
**A.** < 0.5 µM
